Experimental findings from patent US8017612B2, “Piperazine compound and use thereof as a HCV polymerase inhibitor” (priority 2006, dated 2011) are described below.

For assay [1], the target named is T1, HCV polymerase (NS5B) type 1b (Hepatitis C virus genotype 1b, UniProt P26663).
T1 construct: a region encoding NS5B (J Virol 1991 March, 65(3), 1105-13, 544 amino acids after deletion of 47 amino acids on the C-terminal); 6xHis (C); made in house; host or cells: Escherichia coli
As to the kind of experiment: Assay of enzyme (HCV polymerase) inhibitory activity, type 1b enzyme. The format is biochemical, HCV BK strain (type 1b). The method, boiled down: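 NS5B from HCV BK strain (type 1b), C-terminal 47 aa deleted, C-terminal His6-tagged, E. coli-expressed, 0.5 μg/ml, with ~450 nt substrate RNA carrying the 3′ UTR (polyU, 3′X) at 5 μg/ml. Incubation 60 min at 25 °C with 50 μM ATP/GTP/CTP, 2 μM UTP plus [3H]UTP, pH 7.5 Tris.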

Assay [2] has as its target T2, HCV polymerase (NS5B) type 1a (Hepatitis C virus genotype 1a, UniProt P26664).
T2 construct: made in house; host or cells: Escherichia coli (by the 'similar method' of the 1b enzyme)
As to the kind of experiment: Assay of enzyme (HCV polymerase) inhibitory activity, type 1a enzyme. The format is biochemical, HCV type 1a (cloned from the blood of patients). The method, boiled down:
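Patient-derived type 1a NS5B (C-terminal 47-aa deletion, His-tagged, E. coli-expressed) at 1.5 μg/ml was reacted with 5 μg/ml 3′UTR-containing substrate RNA, 50 μM ATP/GTP/CTP, 2 μM UTP plus [3H]UTP, pH 7.5, 25° C for 60 min. TCA-precipitated RNA radioactivity was counted; IC50 from ± compound.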

The mark [3] stands for this setting: HCV polymerase inhibitory activity (IC50), 1b, type 1b enzyme 0.5 μg/ml, 25° C., 60 min.
Setting [4] is: HCV polymerase inhibitory activity (IC50), 1a, type 1a enzyme 1.5 μg/ml, 25° C., 60 min.
Where [5] appears, read: HCV polymerase inhibitory activity IC50, 1b, type 1b enzyme.
[6] abbreviates: HCV polymerase inhibitory activity IC50, 1a, type 1a enzyme.

pIC50: −log10 of the molar value. A value given as a limit tells only on which side of the number the result lay.

Regarding `CCOC(=O)Cc1nnn(CC(=O)N2CCN(S(=O)(=O)c3ccc(OC(F)(F)F)cc3)[C@@H](C(=O)NCc3ccc(C(F)(F)CC)cc3)C2)n1` [Example 466, (2-{2-[(R)-3-[4-(1,1-difluoro-propyl)-benzylcarbamoyl]-4-(4-trifluoromethoxy-benzenesulfonyl)-piperazin-1-yl]-2-oxo-ethyl}-2H-tetrazol-5-yl)-acetic acid ethyl ester], the pIC50 in assay [1] (setting [3]) and in assay [2] (setting [4]) was greater than 7.00 throughout.
Regarding `CC(C)(C)c1ccc(CNC(=O)[C@H]2CN(c3nc4c(s3)C(=O)NC4=O)CCN2S(=O)(=O)c2ccc(OC(F)(F)F)cc2)cc1` [Example 573, (R)-4-(4,6-dioxo-5,6-dihydro-4H-pyrrolo[3,4-d]thiazol-2-yl)-1-(4-trifluoromethoxy-benzenesulfonyl)-piperazine-2-carboxylic acid 4-tert-butyl-benzylamide], the pIC50 in assay [1] (setting [3]) and in assay [2] (setting [4]) was greater than 7.00 throughout.
With `O=C(NCc1ccc(OC(F)(F)F)cc1)[C@H]1CN(c2cnc3cnccc3n2)CCN1S(=O)(=O)c1ccc(Cl)cc1` [Example 752, (R)-1-(4-chloro-benzenesulfonyl)-4-pyrido[3,4-b]pyrazin-2-yl-piperazine-2-carboxylic acid 4-trifluoromethoxy-benzylamide], the pIC50 in assay [1] (setting [5]) and in assay [2] (setting [6]) was greater than 7.00 throughout.
Take `Cc1nc(N2CCN(S(=O)(=O)c3ccc(OC(F)(F)F)cc3)[C@@H](C(=O)NCc3ccc(C(C)C)cc3)C2)sc1C(N)=O` [Example 340, (R)-4-(5-carbamoyl-4-methyl-thiazol-2-yl)-1-(4-trifluoromethoxy-benzenesulfonyl)-piperazine-2-carboxylic acid 4-isopropyl-benzylamide]: the pIC50 in assay [1] (setting [3]) and in assay [2] (setting [4]) was greater than 7.00 each time.
For `N#Cc1ncc2sc(N3CCN(S(=O)(=O)c4ccc(C(F)(F)F)cc4)[C@@H](C(=O)NCc4ccc(OC(F)(F)F)cc4)C3)nc2n1` [Example 1010, (R)-4-(5-cyano-thiazolo[4,5-d]pyrimidin-2-yl)-1-(4-trifluoromethyl-benzenesulfonyl)-piperazine-2-carboxylic acid 4-trifluoromethoxy-benzylamide], the pIC50 in assay [1] (setting [5]) and in assay [2] (setting [6]) was greater than 7.00 throughout.
Turning to `O=C(NCc1ccc(OC(F)(F)F)cc1)[C@H]1CN(c2nc3nn[nH]c(=O)c3s2)CCN1S(=O)(=O)c1ccc(OC(F)(F)F)cc1` [Example 785, (R)-4-(4-oxo-3,4-dihydro-thiazolo[4,5-d][1,2,3]triazin-6-yl)-1-(4-trifluoromethoxy-benzenesulfonyl)-piperazine-2-carboxylic acid 4-trifluoromethoxy-benzylamide], the negative logarithm of the IC50 (pIC50) in assay [1] (setting [5]) and in assay [2] (setting [6]) was greater than 7.00 each time.
As to `Cc1nc(N2CCN(S(=O)(=O)c3ccc(OC(F)(F)F)cc3)[C@@H](C(=O)NCc3ccc(N4CCC4)nc3)C2)sc1C(=O)O` [Example 389, 2-[(R)-3-[(6-azetidin-1-yl-pyridin-3-ylmethyl)-carbamoyl]-4-(4-trifluoromethoxy-benzenesulfonyl)-piperazin-1-yl]-4-methyl-thiazole-5-carboxylic acid], the pIC50 – broadly, the IC50 on a negative log10 scale, so that one unit is a factor of ten – in assay [1] (setting [3]) is greater than 7.00; in assay [2] (setting [4]), 6.00 to 7.00.
For `CC(C)c1ccc(CNC(=O)[C@H]2CN(C(=O)CCC(=O)O)CCN2S(=O)(=O)c2ccc(C(F)(F)F)cc2)cc1` [Example 187, 4-[(R)-3-(4-isopropyl-benzylcarbamoyl)-4-(4-trifluoromethyl-benzenesulfonyl)-piperazin-1-yl]-4-oxo-butyric acid] the same measures were less than 6.00 and less than 6.00.
Consider `CC(=O)N1CCN(S(=O)(=O)c2ccc(OC(F)(F)F)cc2)[C@@H](C(=O)NCc2ccc(C(C)C)cc2)C1` [Example 207, (R)-4-acetyl-1-(4-trifluoromethoxy-benzenesulfonyl)-piperazine-2-carboxylic acid 4-isopropyl-benzylamide], for which the pIC50 in assay [1] (setting [3]) and in assay [2] (setting [4]) was greater than 7.00 each time.
On to `CCC(F)(F)c1ccc(CNC(=O)[C@H]2CN(C(=O)Nc3ccnc(C(=O)N4CCOCC4)c3)CCN2S(=O)(=O)c2ccc(OC(F)(F)F)cc2)cc1` [Example 513, (R)-4-(4-trifluoromethoxy-benzenesulfonyl)-piperazine-1,3-dicarboxylic acid 3-[4-(1,1-difluoro-propyl)-benzylamide] 1-{[2-(morpholine-4-carbonyl)-pyridin-4-yl]-amide}], for which the pIC50 in assay [1] (setting [3]) and in assay [2] (setting [4]) was greater than 7.00 each time.
For the compound `CC(=O)N1CCN(S(=O)(=O)c2ccc(C(C)C)cc2)C(C(=O)NCc2ccc(-c3ccc(Cl)cc3)cc2)C1` (stereo not drawn) [Example 116, 4-acetyl-1-(4-isopropyl-benzenesulfonyl)-piperazine-2-carboxylic acid (4′-chloro-biphenyl-4-ylmethyl)-amide], the pIC50 in assay [1] (setting [3]) and in assay [2] (setting [4]) was less than 6.00 throughout.
Consider `CC(C)c1ccc(CNC(=O)[C@H]2CN(c3n[nH]c(C(=O)O)c3Cl)CCN2S(=O)(=O)c2ccc(C(F)(F)F)cc2)cc1` [Example 427, 4-chloro-5-[(R)-3-(4-isopropyl-benzylcarbamoyl)-4-(4-trifluoromethyl-benzenesulfonyl)-piperazin-1-yl]-2H-pyrazole-3-carboxylic acid], for which the pIC50 in assay [1] (setting [3]) and in assay [2] (setting [4]) was less than 6.00 each time.
`CC(=O)N1CCN(S(=O)(=O)c2ccc(OC(F)(F)F)c(CCC(=O)O)c2)[C@@H](C(=O)NCc2ccc(C(C)C)cc2)C1` [Example 324, 3-{5-[(R)-4-acetyl-2-(4-isopropyl-benzylcarbamoyl)-piperazine-1-sulfonyl]-2-trifluoromethoxy-phenyl}-propionic acid]: the pIC50 in assay [1] (setting [3]) was 6.00 to 7.00; in assay [2] (setting [4]), greater than 7.00.
Consider `O=C(NCc1ccc(OC(F)(F)F)cc1)[C@H]1CN(c2cnc3cncc(Br)c3n2)CCN1S(=O)(=O)c1ccc(OC(F)(F)F)cc1` [Example 799, (R)-4-(8-bromo-pyrido[3,4-b]pyrazin-2-yl)-1-(4-trifluoromethoxy-benzenesulfonyl)-piperazine-2-carboxylic acid 4-trifluoromethoxy-benzylamide], for which the pIC50 in assay [1] (setting [5]) and in assay [2] (setting [6]) was greater than 7.00 in each case.
For `O=C(NCc1ccc(-c2cccs2)cc1)[C@H]1CN(c2cnc3cncnc3n2)CCN1S(=O)(=O)c1ccc(OC(F)(F)F)cc1` [Example 652, (R)-4-pteridin-7-yl-1-(4-trifluoromethoxy-benzenesulfonyl)-piperazine-2-carboxylic acid 4-thiophen-2-yl-benzylamide], the pIC50 in assay [1] (setting [3]) and in assay [2] (setting [4]) was greater than 7.00 throughout.
For the compound `O=C(NCc1ccc(OC(F)(F)F)cc1)[C@H]1CN(c2nc3cn[nH]c(=O)c3s2)CCN1S(=O)(=O)c1ccc([N+](=O)[O-])cc1` [Example 835, (R)-1-(4-nitro-benzenesulfonyl)-4-(7-oxo-6,7-dihydro-thiazolo[4,5-d]pyridazin-2-yl)-piperazine-2-carboxylic acid 4-trifluoromethoxy-benzylamide], the pIC50 in assay [1] (setting [5]) and in assay [2] (setting [6]) was greater than 7.00 throughout.
On to `CCCc1ccc(CNC(=O)[C@H]2CN(C(C)=O)CCN2S(=O)(=O)c2ccc(C(C)C)cc2)c(C)c1` [Example 12, (R)-4-acetyl-1-(4-isopropyl-benzenesulfonyl)-piperazine-2-carboxylic acid 2-methyl-4-propyl-benzylamide], for which the negative-log IC50 (pIC50) in assay [1] (setting [3]) and in assay [2] (setting [4]) was greater than 7.00 throughout.
As to `O=C(O)CCn1ncc2sc(N3CCN(S(=O)(=O)c4ccc(OC(F)(F)F)cc4)[C@@H](C(=O)NCc4ccc(OC(F)(F)F)cc4)C3)nc2c1=O` [Example 1112, 3-{4-oxo-2-[(R)-4-(4-trifluoromethoxy-benzenesulfonyl)-3-(4-trifluoromethoxy-benzylcarbamoyl)-piperazin-1-yl]-4H-thiazolo[4,5-d]pyridazin-5-yl}propionic acid], the pIC50 in assay [1] (setting [5]) and in assay [2] (setting [6]) was greater than 7.00 each time.
Regarding `CCCc1ccc(CNC(=O)[C@H]2CN(C(=O)N(C)c3ccncc3)CCN2S(=O)(=O)c2ccc(OC(F)(F)F)cc2)cc1` [Example 463, (R)-4-(4-trifluoromethoxy-benzenesulfonyl)-piperazine-1,3-dicarboxylic acid 1-(methyl-pyridin-4-yl-amide) 3-(4-propyl-benzylamide)], the pIC50 in assay [1] (setting [3]) and in assay [2] (setting [4]) was less than 6.00 throughout.
Consider `CCC(F)(F)c1ccc(CNC(=O)[C@H]2CN(c3cnc4c(Cl)cccc4n3)CCN2S(=O)(=O)c2ccc(OC(F)(F)F)cc2)cc1` [Example 741, (R)-4-(5-chloro-quinoxalin-2-yl)-1-(4-trifluoromethoxy-benzenesulfonyl)-piperazine-2-carboxylic acid 4-(1,1-difluoro-propyl)-benzylamide], for which the negative logarithm of the IC50 (pIC50) in assay [1] (setting [5]) is greater than 7.00; in assay [2] (setting [6]) it was 6.00 to 7.00.
Consider `Cc1nnc2sc(N3CCN(S(=O)(=O)c4ccc(OC(F)(F)F)cc4)[C@@H](C(=O)NCc4ccc(OC(F)(F)F)cc4)C3)nn12` [Example 933, (R)-4-(3-methyl-[1,2,4]triazolo[3,4-b][1,3,4]thiadiazol-6-yl)-1-(4-trifluoromethoxy-benzenesulfonyl)-piperazine-2-carboxylic acid 4-trifluoromethoxy-benzylamide], for which the pIC50 in assay [1] (setting [5]) and in assay [2] (setting [6]) was greater than 7.00 in each case.
